{"source": "PubChem BioAssay (NCI)", "assay_in_all_cases": "NCI anticancer screen, dose series, 48 h", "key": {"[1]": {"system": "UACC-62 melanoma"}, "[2]": {"system": "TK-10 renal"}, "[3]": {"system": "OVCAR-5 ovarian"}, "[4]": {"system": "SNB-75 CNS"}, "[5]": {"system": "SK-MEL-5 melanoma"}, "[6]": {"system": "KM12 colon"}, "[7]": {"system": "RXF 393 renal"}, "[8]": {"system": "K-562 leukemia"}, "[9]": {"system": "ACHN renal"}, "[10]": {"system": "OVCAR-3 ovarian"}, "[11]": {"system": "SNB-19 CNS"}, "[12]": {"system": "EKVX NSCLC"}, "[13]": {"system": "IGROV1 ovarian"}, "[14]": {"system": "NCI-H23 lung"}, "[15]": {"system": "SNB-78 CNS"}, "[16]": {"system": "A549 NSCLC"}, "[17]": {"system": "HOP-92 NSCLC"}, "[18]": {"system": "SK-MEL-2 melanoma"}, "[19]": {"system": "DMS 114 small cell lung"}, "[20]": {"system": "LXFL 529 NSCLC"}, "[21]": {"system": "KM20L2 colon"}, "[22]": {"system": "786-0 renal"}, "[23]": {"system": "HCT-15 colon"}, "[24]": {"system": "NCI-H226 lung"}, "[25]": {"system": "HL-60(TB) leukemia"}, "[26]": {"system": "HOP-62 NSCLC"}, "[27]": {"system": "U251 CNS"}, "[28]": {"system": "SN12C renal"}, "[29]": {"system": "SW-620 colon"}, "[30]": {"system": "SF-268 CNS"}, "[31]": {"system": "UO-31 renal"}, "[32]": {"system": "MOLT-4 leukemia"}, "[33]": {"system": "HCT-116 colon"}, "[34]": {"system": "HCC-2998 colon"}, "[35]": {"system": "M14 melanoma"}, "[36]": {"system": "OVCAR-4 ovarian"}, "[37]": {"system": "SK-OV-3 ovarian"}, "[38]": {"system": "CAKI-1 renal"}, "[39]": {"system": "MALME-3M melanoma"}, "[40]": {"system": "LOX IMVI melanoma"}, "[41]": {"system": "NCI-H460 lung"}, "[42]": {"system": "MCF7 breast"}, "[43]": {"system": "HT29 colon"}, "[44]": {"system": "COLO 205 colon"}, "[45]": {"system": "SK-MEL-28 melanoma"}, "[46]": {"system": "DU-145 prostate"}, "[47]": {"system": "PC-3 prostate"}, "[48]": {"system": "SF-295 CNS"}, "[49]": {"system": "HS 578T breast"}, "[50]": {"system": "MDA-MB-435"}, "[51]": {"system": "SF-539 CNS"}, "[52]": {"system": "A498 renal"}, "[53]": {"system": "MDA-N"}, "[54]": {"system": "NCI/ADR-RES ovarian"}, "[55]": {"system": "NCI-H522 lung"}, "[56]": {"system": "MDA-MB-231 breast"}, "[57]": {"system": "OVCAR-8 ovarian"}, "[58]": {"system": "SR leukemia"}, "[59]": {"system": "RPMI-8226 leukemia"}, "[60]": {"system": "UACC-257 melanoma"}, "[61]": {"system": "T-47D breast"}, "[62]": {"system": "BT-549 breast"}, "[63]": {"system": "CCRF-CEM leukemia"}}, "note": "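Following 48 hours of exposure in 96-well plates, responses at five concentrations were used to interpolate endpoints linearly. TGI is the concentration that stops growth completely.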"}
{"smiles": "Cc1ccccc1C(=O)C1CCCCC1O", "note": "(centres undefined)", "values": [{"measurement": "TGI", "setting": "[1]", "value": "> 100", "unit": "µM"}, {"measurement": "TGI", "setting": "[2]", "value": "> 100", "unit": "µM"}, {"measurement": "TGI", "setting": "[3]", "value": "> 100", "unit": "µM"}, {"measurement": "TGI", "setting": "[4]", "value": "> 100", "unit": "µM"}, {"measurement": "TGI", "setting": "[5]", "value": "> 100", "unit": "µM"}, {"measurement": "TGI", "setting": "[6]", "value": "> 100", "unit": "µM"}, {"measurement": "TGI", "setting": "[7]", "value": "> 100", "unit": "µM"}, {"measurement": "TGI", "setting": "[8]", "value": "> 100", "unit": "µM"}, {"measurement": "TGI", "setting": "[9]", "value": "> 100", "unit": "µM"}, {"measurement": "TGI", "setting": "[10]", "value": "> 100", "unit": "µM"}, {"measurement": "TGI", "setting": "[11]", "value": "> 100", "unit": "µM"}, {"measurement": "TGI", "setting": "[12]", "value": "> 100", "unit": "µM"}, {"measurement": "TGI", "setting": "[13]", "value": "> 100", "unit": "µM"}, {"measurement": "TGI", "setting": "[14]", "value": "> 100", "unit": "µM"}, {"measurement": "TGI", "setting": "[15]", "value": "> 100", "unit": "µM"}, {"measurement": "TGI", "setting": "[16]", "value": "> 100", "unit": "µM"}, {"measurement": "TGI", "setting": "[17]", "value": "> 100", "unit": "µM"}, {"measurement": "TGI", "setting": "[18]", "value": "> 100", "unit": "µM"}, {"measurement": "TGI", "setting": "[19]", "value": "> 100", "unit": "µM"}, {"measurement": "TGI", "setting": "[20]", "value": "> 100", "unit": "µM"}, {"measurement": "TGI", "setting": "[21]", "value": "> 100", "unit": "µM"}, {"measurement": "TGI", "setting": "[22]", "value": "> 100", "unit": "µM"}, {"measurement": "TGI", "setting": "[23]", "value": "> 100", "unit": "µM"}, {"measurement": "TGI", "setting": "[24]", "value": "> 100", "unit": "µM"}, {"measurement": "TGI", "setting": "[25]", "value": "> 100", "unit": "µM"}, {"measurement": "TGI", "setting": "[26]", "value": "> 100", "unit": "µM"}, {"measurement": "TGI", "setting": "[27]", "value": "> 100", "unit": "µM"}, {"measurement": "TGI", "setting": "[28]", "value": "> 100", "unit": "µM"}, {"measurement": "TGI", "setting": "[29]", "value": "> 100", "unit": "µM"}, {"measurement": "TGI", "setting": "[30]", "value": "> 100", "unit": "µM"}, {"measurement": "TGI", "setting": "[31]", "value": "> 100", "unit": "µM"}, {"measurement": "TGI", "setting": "[32]", "value": "> 100", "unit": "µM"}, {"measurement": "TGI", "setting": "[33]", "value": "> 100", "unit": "µM"}, {"measurement": "TGI", "setting": "[34]", "value": "> 100", "unit": "µM"}, {"measurement": "TGI", "setting": "[35]", "value": "> 100", "unit": "µM"}, {"measurement": "TGI", "setting": "[36]", "value": "> 100", "unit": "µM"}, {"measurement": "TGI", "setting": "[37]", "value": "> 100", "unit": "µM"}, {"measurement": "TGI", "setting": "[38]", "value": "> 100", "unit": "µM"}, {"measurement": "TGI", "setting": "[39]", "value": "> 100", "unit": "µM"}, {"measurement": "TGI", "setting": "[40]", "value": "> 100", "unit": "µM"}]}
{"smiles": "COc1ccc2c3c1O[C@H](c1ccc(O)cc1)[C@H]3[N+](C)(C)CC2", "values": [{"measurement": "TGI", "setting": "[1]", "value": "> 100", "unit": "µM"}, {"measurement": "TGI", "setting": "[2]", "value": "> 100", "unit": "µM"}, {"measurement": "TGI", "setting": "[41]", "value": "> 100", "unit": "µM"}, {"measurement": "TGI", "setting": "[3]", "value": "> 100", "unit": "µM"}, {"measurement": "TGI", "setting": "[4]", "value": "> 100", "unit": "µM"}, {"measurement": "TGI", "setting": "[42]", "value": "> 100", "unit": "µM"}, {"measurement": "TGI", "setting": "[5]", "value": "> 100", "unit": "µM"}, {"measurement": "TGI", "setting": "[6]", "value": "> 100", "unit": "µM"}, {"measurement": "TGI", "setting": "[7]", "value": "> 100", "unit": "µM"}, {"measurement": "TGI", "setting": "[8]", "value": 88.2, "unit": "µM"}, {"measurement": "TGI", "setting": "[9]", "value": "> 100", "unit": "µM"}, {"measurement": "TGI", "setting": "[10]", "value": "> 100", "unit": "µM"}, {"measurement": "TGI", "setting": "[43]", "value": "> 100", "unit": "µM"}, {"measurement": "TGI", "setting": "[44]", "value": "> 100", "unit": "µM"}, {"measurement": "TGI", "setting": "[45]", "value": "> 100", "unit": "µM"}, {"measurement": "TGI", "setting": "[11]", "value": "> 100", "unit": "µM"}, {"measurement": "TGI", "setting": "[12]", "value": "> 100", "unit": "µM"}, {"measurement": "TGI", "setting": "[13]", "value": "> 100", "unit": "µM"}, {"measurement": "TGI", "setting": "[14]", "value": "> 100", "unit": "µM"}, {"measurement": "TGI", "setting": "[46]", "value": "> 100", "unit": "µM"}, {"measurement": "TGI", "setting": "[16]", "value": "> 100", "unit": "µM"}, {"measurement": "TGI", "setting": "[17]", "value": "> 100", "unit": "µM"}, {"measurement": "TGI", "setting": "[47]", "value": "> 100", "unit": "µM"}, {"measurement": "TGI", "setting": "[48]", "value": "> 100", "unit": "µM"}, {"measurement": "TGI", "setting": "[49]", "value": "> 100", "unit": "µM"}, {"measurement": "TGI", "setting": "[18]", "value": "> 100", "unit": "µM"}, {"measurement": "TGI", "setting": "[50]", "value": "> 100", "unit": "µM"}, {"measurement": "TGI", "setting": "[51]", "value": "> 100", "unit": "µM"}, {"measurement": "TGI", "setting": "[52]", "value": "> 100", "unit": "µM"}, {"measurement": "TGI", "setting": "[22]", "value": "> 100", "unit": "µM"}, {"measurement": "TGI", "setting": "[53]", "value": "> 100", "unit": "µM"}, {"measurement": "TGI", "setting": "[23]", "value": "> 100", "unit": "µM"}, {"measurement": "TGI", "setting": "[24]", "value": "> 100", "unit": "µM"}, {"measurement": "TGI", "setting": "[25]", "value": 96.1, "unit": "µM"}, {"measurement": "TGI", "setting": "[54]", "value": "> 100", "unit": "µM"}, {"measurement": "TGI", "setting": "[26]", "value": "> 100", "unit": "µM"}, {"measurement": "TGI", "setting": "[27]", "value": "> 100", "unit": "µM"}, {"measurement": "TGI", "setting": "[28]", "value": "> 100", "unit": "µM"}, {"measurement": "TGI", "setting": "[55]", "value": "> 100", "unit": "µM"}, {"measurement": "TGI", "setting": "[56]", "value": "> 100", "unit": "µM"}, {"measurement": "TGI", "setting": "[29]", "value": "> 100", "unit": "µM"}, {"measurement": "TGI", "setting": "[30]", "value": "> 100", "unit": "µM"}, {"measurement": "TGI", "setting": "[57]", "value": "> 100", "unit": "µM"}, {"measurement": "TGI", "setting": "[58]", "value": "> 100", "unit": "µM"}, {"measurement": "TGI", "setting": "[59]", "value": "> 100", "unit": "µM"}, {"measurement": "TGI", "setting": "[31]", "value": "> 100", "unit": "µM"}, {"measurement": "TGI", "setting": "[60]", "value": "> 100", "unit": "µM"}, {"measurement": "TGI", "setting": "[32]", "value": "> 100", "unit": "µM"}, {"measurement": "TGI", "setting": "[33]", "value": "> 100", "unit": "µM"}, {"measurement": "TGI", "setting": "[34]", "value": "> 100", "unit": "µM"}, {"measurement": "TGI", "setting": "[35]", "value": "> 100", "unit": "µM"}, {"measurement": "TGI", "setting": "[36]", "value": "> 100", "unit": "µM"}, {"measurement": "TGI", "setting": "[61]", "value": "> 100", "unit": "µM"}, {"measurement": "TGI", "setting": "[37]", "value": "> 100", "unit": "µM"}, {"measurement": "TGI", "setting": "[38]", "value": "> 100", "unit": "µM"}, {"measurement": "TGI", "setting": "[39]", "value": "> 100", "unit": "µM"}, {"measurement": "TGI", "setting": "[62]", "value": "> 100", "unit": "µM"}, {"measurement": "TGI", "setting": "[63]", "value": "> 100", "unit": "µM"}, {"measurement": "TGI", "setting": "[40]", "value": "> 100", "unit": "µM"}]}
